Measured values published in patent publication US11117915B2, “Antibacterial aminoglycoside analogs” (Cipla USA, Inc., priority 2007, dated 2021).
In brackets after ≈: the same amount, converted by molar mass. Where two headings read alike, the source gives them in different places.

How the values were obtained:
P. aeruginosa ATCC 27853 = assay: MIC assay, CLSI broth microdilution, P. aeruginosa ATCC 27853 (APAE001); type: cell-based; details: for MIC: Pseudomonas aeruginosa, read-out: MIC APAE001
Method: (§1) Minimum inhibitory concentrations (MIC) were determined by reference Clinical and Laboratory Standards Institute (CLSI) broth microdilution methods per M7-A7 [2006]. Quality control ranges utilizing E. coli ATCC 25922, P. aeruginosa ATCC 27853 and S. aureus ATCC 29213, and interpretive criteria for comparator agents were as published in CLSI M100-S17 [2007]. Briefly, serial two-fold dilutions of the test compounds were prepared at 2× concentration in Mueller Hinton Broth. The compound dilutions were mixed in 96-well assay plates in a 1:1 ratio with bacterial inoculum. The inoculum was prepared by suspension of a colony from an agar plate that was prepared the previous day. Bacteria were suspended in sterile saline and added to each assay plate to obtain a final concentration of 5×10^5 CFU/mL. The plates were incubated at 35° C. for 20 hours in ambient air.

E. coli ATCC 25922 = assay: MIC assay, CLSI broth microdilution, E. coli ATCC 25922 (AECO001); type: cell-based; details: for MIC: Escherichia coli, read-out: MIC AECO001
Method: as §1
These MIC assays were conducted following the same protocol as set forth in Example 110. As shown, substituted sisomicin derivatives with groups other than methyl at the 6′-position have improved activity against strains expressing the AAC6′-modifying enzymes.

[1] = APAE001 is ATCC27853, 35° C., 20 hours
[2] = AECO001 is ATCC25922, 35° C., 20 hours

Row | Compound | MIC (P. aeruginosa ATCC 27853; ATCC27853, 20 h) [µg/mL] | MIC (E. coli ATCC 25922; ATCC25922, 20 h) [µg/mL] | also measured
1 | CN[C@@H]1[C@@H](O)[C@@H](O[C@@H]2[C@@H](O)[C@H](O[C@H]3OC(CNCC4CC4)=CC[C@H]3N)[C@@H](N)C[C@H]2NC(=O)C2(O)CCNC2)OC[C@]1(C)O (some centres unmarked) [Example 41] | 1 to 16 (≈ 1.63 to 26 µM) | < 1 | –
2 | CN[C@@H]1[C@@H](O)[C@@H](O[C@@H]2[C@@H](O)[C@H](O[C@H]3OC(CNCC(O)CN)=CC[C@H]3N)[C@@H](N)C[C@H]2NC(=O)C2(O)CCNC2)OC[C@]1(C)O (some centres unmarked) [Example 42, 6′-(2-Hydroxy-3-amino-propyl)-1-(3-hydroxy-pyrrolidin-3-yl-acetyl)-sisomicin] | 1 to 16 (≈ 1.58 to 25.2 µM) | 1 to 16 (≈ 1.58 to 25.2 µM) | –
3 | CN[C@@H]1[C@@H](O)[C@@H](O[C@@H]2[C@@H](O)[C@H](O[C@H]3OC(CNCCCCN)=CC[C@H]3N)[C@@H](N)C[C@H]2NC(=O)[C@@H](O)CCN)OC[C@]1(C)O [Example 43, 6′-(4-Amino-butyl)-1-(4-amino-2(S)-hydroxy-butyryl)-sisomicin] | < 1 | < 1 | –
4 | CN[C@@H]1[C@@H](O)[C@@H](O[C@@H]2[C@@H](O)[C@H](O[C@H]3OC(CNCCCCCN)=CC[C@H]3N)[C@@H](N)C[C@H]2NC(=O)[C@@H](O)CCN)OC[C@]1(C)O [Example 44, 6′-(5-Amino-pentyl)-1-(4-amino-2(S)-hydroxy-butyryl)-sisomicin] | 1 to 16 (≈ 1.58 to 25.2 µM) | < 1 | –
5 | CN[C@@H]1[C@@H](O)[C@@H](O[C@@H]2[C@@H](O)[C@H](O[C@H]3OC(CNCC4(O)CC(N)C4)=CC[C@H]3N)[C@@H](N)C[C@H]2NC(=O)[C@@H](O)CCN)OC[C@]1(C)O (some centres unmarked) [Example 46] | 1 to 16 (≈ 1.54 to 24.7 µM) | < 1 | –
6 | CN[C@@H]1[C@@H](O)[C@@H](O[C@@H]2[C@@H](O)[C@H](O[C@H]3OC(CNCC4(O)CC(N)C4)=CC[C@H]3N)[C@@H](N)C[C@H]2NC(=O)C2(O)CNC2)OC[C@]1(C)O (some centres unmarked) [Example 47] | 1 to 16 (≈ 1.55 to 24.8 µM) | 1 to 16 (≈ 1.55 to 24.8 µM) | –
7 | CN[C@@H]1[C@@H](O)[C@@H](O[C@@H]2[C@@H](O)[C@H](O[C@H]3OC(CNCCCN)=CC[C@H]3N)[C@@H](N)C[C@H]2NC(=O)[C@@H](O)CCN)OC[C@]1(C)O [Example 48, 6′-(3-Amino-propyl)-1-(4-amino-2(S)-hydroxy-butyryl)-sisomicin] | – | – | MIC (P. aeruginosa ATCC 27853; [1]): 1 to 16 µg/mL (≈ 1.65 to 26.4 µM); MIC (E. coli ATCC 25922; [2]): < 1 µg/mL; MIC AECO001 (E. coli ATCC 25922; Table 3, E. coli ATCC25922): 1 µg/mL (≈ 1.65 µM)
8 | CN[C@@H]1[C@@H](O)[C@@H](O[C@@H]2[C@@H](O)[C@H](O[C@H]3OC(CNCC4CCCN4)=CC[C@H]3N)[C@@H](N)C[C@H]2NC(=O)[C@@H](O)CCN)OC[C@]1(C)O (stereo partly drawn) [Example 49, 6′-(Methyl-pyrrolidin-2-yl)-1-(4-amino-2(S)-hydroxy-butyryl)-sisomicin] | 1 to 16 (≈ 1.58 to 25.3 µM) | < 1 | –
9 | CN[C@@H]1[C@@H](O)[C@@H](O[C@@H]2[C@@H](O)[C@H](O[C@H]3OC(CNC[C@H](O)C(=O)O)=CC[C@H]3N)[C@@H](N)C[C@H]2NC(=O)[C@@H](O)CCN)OC[C@]1(C)O [Example 50, 6′-(2(S)-Hydroxy-3-propanoic)-1-(4-amino-2(S)-hydroxy-butyryl)-sisomicin] | > 16 | > 16 | –
10 | CN[C@@H]1[C@@H](O)[C@@H](O[C@@H]2[C@@H](O)[C@H](O[C@H]3OC(CNCC(C)(C)CN)=CC[C@H]3N)[C@@H](N)C[C@H]2NC(=O)[C@@H](O)CN)OC[C@]1(C)O [Example 51, 6′-(2,2-Dimethyl-3-amino-propyl)-1-(3-amino-2(S)-hydroxy-propionyl)-sisomicin] | – | – | MIC APAE001 (P. aeruginosa ATCC 27853; [1]): C (MIC's of greater than 16.0 μg/mL = C); MIC AECO001 (E. coli ATCC 25922; [2]): A (MIC's of 1.0 μg/mL or less = A)
11 | CN[C@@H]1[C@@H](O)[C@@H](O[C@@H]2[C@@H](O)[C@H](O[C@H]3OC(CNCCC(N)C4CC4)=CC[C@H]3N)[C@@H](N)C[C@H]2NC(=O)[C@@H](O)CN)OC[C@]1(C)O (stereo partly drawn) [Example 52, 6′-(3-Amino-3-cyclopropyl-propyl)-1-(3-amino-2(S)-hydroxy-propionyl)-sisomicin] | – | – | MIC APAE001 (P. aeruginosa ATCC 27853; [1]): B (MIC's of greater than 1.0 μg/mL to 16.0 μg/mL = B); MIC AECO001 (E. coli ATCC 25922; [2]): A (MIC's of 1.0 μg/mL or less = A)
12 | CN[C@@H]1[C@@H](O)[C@@H](O[C@@H]2[C@@H](O)[C@H](O[C@H]3OC(CNC[C@H]4C[C@H](O)CN4)=CC[C@H]3N)[C@@H](N)C[C@H]2NC(=O)[C@@H](O)CN)CC[C@]1(C)O [Example 53, 6′-(Methyl-4(S)-hydroxy-pyrrolidin-2(R)-yl)-1-(3-amino-2(S)-hydroxy-propionyl)-sisomicin] | > 16 | 1 to 16 (≈ 1.58 to 25.3 µM) | –
13 | CN[C@@H]1[C@@H](O)[C@@H](O[C@@H]2[C@@H](O)[C@H](O[C@H]3OC(CNCCCO)=CC[C@H]3N)[C@@H](N)C[C@H]2NC(=O)[C@@H](O)CN)OC[C@]1(C)O [Example 54, 6′-(3-Propanol)-1-(3-amino-2(S)-hydroxy-propionyl)-sisomicin] | 1 to 16 (≈ 1.69 to 27 µM) | < 1 | –
14 | CN[C@@H]1[C@@H](O)[C@@H](O[C@@H]2[C@@H](O)[C@H](O[C@H]3OC(CNCC(C)(C)N)=CC[C@H]3N)[C@@H](N)C[C@H]2NC(=O)[C@@H](O)CN)OC[C@]1(C)O [Example 55, 6′-(2-Methyl-2-amino-propyl)-1-(3-amino-2(S)-hydroxy-propionyl)-sisomicin] | > 16 | 1 to 16 (≈ 1.65 to 26.4 µM) | –
